Test [1] concerns the target T1, Recombinant human LSD1 (172–852 aa) (Homo sapiens, UniProt O60341). To be noted: for LSD1 IC50 level in words: potency range in words; for fold reduction in LSD1 inhibitory potency vs 23a, 23b: 24a, 24b vs 23a; for fold reduction in LSD1 inhibitory potency vs 28a, 28b: 29a, 29b vs 28a.
Procedure: (§1) LSD1 or LSD2 enzyme inhibition assay was performed with Lance Ultra LSD1 Histone H3-Lysine 4 Demethylase Assay kit (Perkin Elmer) according to the manufacturer's protocol. […] The test was carried out in triplicate. And the IC50 data was calculated using the software GraphPad Prism 5, and chosen the equation “sigmoidal dose–response (variable slope)” for curve fitting.
The target in test [2] is T1, Recombinant human LSD1 (172–852 aa). Put plainly: biochemical.
Procedure: as §1
A further test deals with T2, MAO-A (Homo sapiens, UniProt P21397).
T2 sequence (P21397 1-527): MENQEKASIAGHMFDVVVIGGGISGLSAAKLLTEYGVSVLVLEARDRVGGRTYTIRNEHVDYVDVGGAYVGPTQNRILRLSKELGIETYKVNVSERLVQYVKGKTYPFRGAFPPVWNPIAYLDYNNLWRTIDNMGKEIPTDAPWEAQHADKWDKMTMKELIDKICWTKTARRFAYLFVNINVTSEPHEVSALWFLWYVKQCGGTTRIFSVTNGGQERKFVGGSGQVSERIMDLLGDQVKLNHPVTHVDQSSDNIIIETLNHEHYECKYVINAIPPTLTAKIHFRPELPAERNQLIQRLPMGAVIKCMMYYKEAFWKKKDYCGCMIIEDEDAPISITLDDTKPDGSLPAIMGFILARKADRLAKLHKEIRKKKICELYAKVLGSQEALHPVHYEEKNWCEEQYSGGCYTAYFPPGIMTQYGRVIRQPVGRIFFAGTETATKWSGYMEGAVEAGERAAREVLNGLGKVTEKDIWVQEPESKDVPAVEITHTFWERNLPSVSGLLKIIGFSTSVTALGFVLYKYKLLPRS
The experiment in a line: biochemical. The following applies: MAO-A, IC50, Table 1; mean ± SEM, eight-point experiments, three independent experiments.

Another test deals with T3, MAO-B (Homo sapiens, UniProt P27338).
T3 sequence (P27338 1-520): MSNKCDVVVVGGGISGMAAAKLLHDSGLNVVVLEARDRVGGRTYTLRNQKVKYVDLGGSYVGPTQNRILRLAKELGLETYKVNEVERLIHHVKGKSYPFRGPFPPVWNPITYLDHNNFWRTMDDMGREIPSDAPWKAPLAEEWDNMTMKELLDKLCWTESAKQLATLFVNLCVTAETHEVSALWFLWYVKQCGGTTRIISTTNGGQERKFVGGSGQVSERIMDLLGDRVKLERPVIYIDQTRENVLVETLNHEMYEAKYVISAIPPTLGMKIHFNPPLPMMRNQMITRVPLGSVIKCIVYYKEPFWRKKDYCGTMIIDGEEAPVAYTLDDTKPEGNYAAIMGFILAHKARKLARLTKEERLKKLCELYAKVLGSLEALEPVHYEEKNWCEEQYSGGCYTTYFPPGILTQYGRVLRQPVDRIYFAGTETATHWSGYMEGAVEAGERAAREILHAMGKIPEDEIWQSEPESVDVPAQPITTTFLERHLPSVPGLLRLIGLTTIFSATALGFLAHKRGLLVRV
The experiment in a line: biochemical. The following applies: MAO-B, IC50, Table 1; mean ± SEM, eight-point experiments, three independent experiments.

Where a name gives a salt, the structure may show the parent alone. A value given as a limit tells only on which side of the number the result lay.

Procedure for MAO-A: (§2) MAO-A and MAO-B enzymes were purchased from Sigma-Aldrich and the inhibition assay was tested with Promega MAO-Glo™ Assay kit according to the manufacturer's protocol. The luminescent signals were detected using Envision (PerkinElmer). The test was carried out in triplicate. And the IC50 data was calculated using the software GraphPad Prism 5, and chosen the equation “sigmoidal dose–response (variable slope)” for curve fitting.
Procedure for MAO-B: as §2

A word on the IC50: it is the concentration needed to halve the response being measured. For `COc1ccc(F)cc1CN[C@H]1CC12CCc1cc(-c3ccccc3)ccc12` (stereo in doubt) [Compound 30b, (2S)-N-(5-Fluoro-2-methoxybenzyl)-5′-phenyl-2′,3′-dihydrospiro[cyclopropane-1,1′-inden]-2-amine], in test [1], the “LSD1 IC50 level in words” value is listed as “single digit micromolar range”. In addition, in test [2], the 50% inhibitory concentration (IC50) came to 4.4 ± 0.3 µM.

As to `O=C(CN[C@H]1CC12CCc1ccccc12)N1CCOCC1` (stereo in doubt) [Compound 25b, 2-(((2S)-2′,3′-Dihydrospiro[cyclopropane-1,1′-inden]-2-yl)amino)-1-morpholinoethan-1-one hydrochloride], in test [2], the IC50 worked out at 22 ± 4 µM. Still for that read-out and setting: in the case of `N[C@H]1CC12CCc1cc(-c3ccccc3)ccc12` (stereo in doubt) [Compound 28b, (2S)-5′-Phenyl-2′,3′-dihydrospiro[cyclopropane-1,1′-inden]-2-amine hydrochloride] it was 2.7 ± 0.2 µM. For the compound `Fc1cccnc1CN[C@H]1CC12CCc1ccccc12` (stereo in doubt) [Compound 24b, (2S)-N-((3-Fluoropyridin-2-yl)methyl)-2′,3′-dihydrospiro[cyclopropane-1,1′-inden]-2-amine], the “fold reduction in LSD1 inhibitory potency vs 23a, 23b” value in test [1] is on record as no less than 4 fold. Further, the IC50 in test [2] worked out at 0.47 ± 0.02 µM. As to `COc1ccccc1CN[C@H]1CC12CCc1ccccc12` (stereo in doubt) [Compound 14b, (2S)-N-(2-Methoxybenzyl)-2′,3′-dihydrospiro[cyclopropane-1,1′-inden]-2-amine], the values for the IC50 against MAO-A and against MAO-B were 1.7 ± 0.3 µM and 70 ± 35 µM, respectively. On to `Fc1cccnc1CN[C@@H]1CC12CCc1ccccc12` (stereo in doubt) [Compound 24a, (2R)-N-((3-Fluoropyridin-2-yl)methyl)-2′,3′-dihydrospiro[cyclopropane-1,1′-inden]-2-amine], for which the “fold reduction in LSD1 inhibitory potency vs 23a, 23b” value in test [1] is reported as no less than 4 fold. Further, the half-maximal inhibitory concentration (IC50) in test [2] was determined as 0.25 ± 0.01 µM.

As for `c1ccc(CN[C@@H]2CC23CCc2ccccc23)cc1` (mixture of isomers) [Compound 13a, (2R)-N-Benzyl-2′,3′-dihydrospiro[cyclopropane-1,1′-inden]-2-amine], the 50% inhibitory concentration (IC50) in test [2] was determined as 3.3 ± 0.6 µM.

As to `COc1ccc(Br)cc1CN[C@@H]1CC12CCc1ccccc12` (stereo in doubt) [Compound 16a, (2R)-N-(5-Bromo-2-methoxybenzyl)-2′,3′-dihydrospiro[cyclopropane-1,1′-inden]-2-amine], the IC50 came to 3.7 ± 0.8 µM against MAO-A and 1.2 ± 0.2 µM at MAO-B. For the compound `COc1ccc(Br)cc1CN[C@H]1CC12CCc1ccccc12` (stereo in doubt) [Compound 16b, (2S)-N-(5-Bromo-2-methoxybenzyl)-2′,3′-dihydrospiro[cyclopropane-1,1′-inden]-2-amine], the half-maximal inhibitory concentration (IC50) is 0.39 ± 0.19 µM against MAO-A and 7.7 ± 3.8 µM on MAO-B.

In the case of `COc1ccc(CNC2CC23CCc2ccccc23)cc1OC` [Compound 19b, (2S)-N-(3,4-Fimethoxybenzyl)-2′,3′-dihydrospiro[cyclopropane-1,1′-inden]-2-amine], the IC50 at MAO-A amounted to 3.1 ± 0.2 µM; at MAO-B it was 27 ± 4 µM. `Fc1ccccc1CN[C@H]1CC12CCc1ccccc12` (stereo in doubt) [Compound 15b, (2S)-N-(2-Fluorobenzyl)-2′,3′-dihydrospiro[cyclopropane-1,1′-inden]-2-amine]: the half-maximal inhibitory concentration (IC50) was found to be 2.5 ± 0.1 µM at MAO-A and 32 ± 3 µM at MAO-B.

Turning to `COc1ncccc1CN[C@H]1CC12CCc1ccccc12` (stereo in doubt) [Compound 22b, (2S)-N-((2-Methoxypyridin-3-yl)methyl)-2′,3′-dihydrospiro[cyclopropane-1,1′-inden]-2-amine], the IC50 in test [2] was 0.01 ± 0.005 µM; against MAO-A it was greater than 100 µM; on MAO-B, 68 ± 8 µM. In the case of `Cl.N[C@H]1CC12CCc1cc(-c3ccc(F)cc3)ccc12` (stereo in doubt) [Compound 29b, (2S)-5′-(4-Fluorophenyl)-2′,3′-dihydrospiro[cyclopropane-1,1′-inden]-2-amine hydrochloride], the “fold reduction in LSD1 inhibitory potency vs 28a, 28b” value in test [1] is given as “approximately 3 fold”. The concentration for half-maximal inhibition (IC50) in test [2] was determined as 6 ± 0.8 µM. As to `COc1ccccc1CN[C@@H]1CC12CCc1ccccc12` (stereo in doubt) [Compound 14a, (2R)-N-(2-Methoxybenzyl)-2′,3′-dihydrospiro[cyclopropane-1,1′-inden]-2-amine], the IC50 at MAO-A was 5.9 ± 1.1 µM; against MAO-B, 12 ± 1 µM.

Consider `COc1ccc(CN[C@@H]2CC23CCc2cc(-c4ccccc4)ccc23)c(Cl)c1OC` (stereo in doubt) [Compound 31a, (2R)-N-(2-Chloro-3,4-dimethoxybenzyl)-5′-phenyl-2′,3′-dihydrospiro[cyclopropane-1,1′-inden]-2-amine], for which the “LSD1 IC50 level in words” value in test [1] is given as “single digit micromolar range”. The 50% inhibitory concentration (IC50) in test [2] turned out to be 8.9 ± 1.2 µM. `NC1CCC(N[C@@H]2C[C@H]2c2ccccc2)CC1` (stereo partly drawn) [Compound 6, N1-[(1R, 2S)-2-phenylcyclopropyl]cyclohexane-1,4-diamine dihydrochloride, reference compound] came in with a half-maximal inhibitory concentration (IC50) on MAO-A greater than 100 µM. In the case of `COc1ccc(CNC2CC23CCc2ccccc23)cc1OC` [Compound 19a, (2R)-N-(3,4-Fimethoxybenzyl)-2′,3′-dihydrospiro[cyclopropane-1,1′-inden]-2-amine], the results for the IC50 at MAO-A and on MAO-B were 11.7 ± 2.4 µM and 15 ± 2 µM, respectively. As for `COc1ccc(F)cc1CN[C@@H]1CC12CCc1cc(-c3ccc(F)cc3)ccc12` (stereo in doubt) [Compound 32a, (2R)-N-(5-Fluoro-2-methoxybenzyl)-5′-(4-fluorophenyl)-2′,3′-dihydrospiro[cyclopropane-1,1′-inden]-2-amine], in test [1], the “LSD1 IC50 level in words” value is reported as “single digit micromolar range”. The IC50 in test [2] was determined as 2.6 ± 0.5 µM. With `Fc1ccccc1CN[C@@H]1CC12CCc1ccccc12` (mixture of isomers) [Compound 15a, (2R)-N-(2-Fluorobenzyl)-2′,3′-dihydrospiro[cyclopropane-1,1′-inden]-2-amine], the figures for the half-maximal inhibitory concentration (IC50) on MAO-A and on MAO-B were 4.8 ± 0.5 µM and 9.8 ± 2.3 µM, respectively. For `O=C(CN[C@@H]1CC12CCc1ccccc12)N1CCOCC1` (stereo in doubt) [Compound 25a, 2-(((2R)-2′,3′-Dihydrospiro[cyclopropane-1,1′-inden]-2-yl)amino)-1-morpholinoethan-1-one hydrochloride], the IC50 in test [2] came to 1.4 ± 0.1 µM. For `Cl.N[C@@H]1CC12CCc1cc(-c3ccc(F)cc3)ccc12` (stereo in doubt) [Compound 29a, (2R)-5′-(4-Fluorophenyl)-2′,3′-dihydrospiro[cyclopropane-1,1′-inden]-2-amine hydrochloride], the “fold reduction in LSD1 inhibitory potency vs 28a, 28b” value in test [1] is “approximately 3 fold”. In test [2], the IC50 is 0.3 ± 0.01 µM.

As to `COc1ccc(CN[C@@H]2CC23CCc2ccccc23)c(Cl)c1OC` (stereo in doubt) [Compound 20a, (2R)-N-(2-Chloro-3,4-dimethoxybenzyl)-2′,3′-dihydrospiro[cyclopropane-1,1′-inden]-2-amine], the results for the concentration for half-maximal inhibition (IC50) on MAO-A and at MAO-B were 1.4 ± 0.1 µM and 20 ± 1 µM, respectively. On to `COc1ccc(CN[C@H]2CC23CCc2ccccc23)c(Cl)c1OC` (stereo in doubt) [Compound 20b, (2S)-N-(2-Chloro-3,4-dimethoxybenzyl)-2′,3′-dihydrospiro[cyclopropane-1,1′-inden]-2-amine], for which the 50% inhibitory concentration (IC50) on MAO-A is 5 ± 1.8 µM; on MAO-B, 7 ± 0.7 µM.

The record behind these values is article PMC9077246, “Novel spirocyclic tranylcypromine derivatives as lysine-specific demethylase 1 (LSD1) inhibitors” (RSC Advances, 2018).
